Source: patent US12465652B2 (AMGEN INC., priority 2017, dated 2025)

Key:
human GLP-IR [1] = molecular target: T1, human GLP-IR (Homo sapiens, UniProt P43220); assay: GLP1 activity | EC50 (M)
Description: Table printed on a drawing sheet, FIG. 1A Head of the field: GLP1 activity | EC50 (M) The patent's description of the figure: FIG. 1A-1B: Synthetic Peptides (FIG. 1A discloses SEQ ID NOS 3948 and 3275-3298 and FIG. 1B discloses SEQ ID NOS 3948 and 3299-3302, all respectively, in order of appearance) First copying reader's note: The first head row prints a reference sequence (residues at positions 7-35) above the position numbers; two fully empty rows separate groups of peptides. Where the first naming reader finds the target: passage: CHOK1 cells stably expressing the human GLP-IR were used to measure peptide or recombinant fusion-induced cAMP production

human GLP-IR [2] = molecular target: T1, human GLP-IR; assay: GLP1 activity | EC50 (pM)
Description: Table printed on a drawing sheet, FIG. 1A
Head of the field: GLP1 activity | EC50 (pM)
The patent's description of the figure: FIG. 1A-1B: Synthetic Peptides (FIG. 1A discloses SEQ ID NOS 3948 and 3275-3298 and FIG. 1B discloses SEQ ID NOS 3948 and 3299-3302, all respectively, in order of appearance)
First copying reader's note: The first head row prints a reference sequence (residues at positions 7-35) above the position numbers; two fully empty rows separate groups of peptides.
Where the first naming reader finds the target: passage: CHOK1 cells stably expressing the human GLP-IR were used to measure peptide or recombinant fusion-induced cAMP production

T1 sequence (P43220 24-463 limits assumed): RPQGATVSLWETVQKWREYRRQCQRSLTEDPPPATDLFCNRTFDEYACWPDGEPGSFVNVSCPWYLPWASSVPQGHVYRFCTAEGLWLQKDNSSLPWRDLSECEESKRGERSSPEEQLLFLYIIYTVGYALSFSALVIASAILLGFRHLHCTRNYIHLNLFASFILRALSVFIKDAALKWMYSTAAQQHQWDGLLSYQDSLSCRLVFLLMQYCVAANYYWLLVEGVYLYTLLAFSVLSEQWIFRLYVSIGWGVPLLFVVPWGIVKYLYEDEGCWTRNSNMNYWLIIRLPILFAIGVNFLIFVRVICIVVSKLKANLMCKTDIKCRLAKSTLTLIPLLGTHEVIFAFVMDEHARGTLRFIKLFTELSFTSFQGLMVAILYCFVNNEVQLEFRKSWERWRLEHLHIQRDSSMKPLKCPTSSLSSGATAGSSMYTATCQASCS

Compound	EC50 (human GLP-IR [1]) [nM]	EC50 (human GLP-IR [2]) [nM]
CC[C@H](C)[C@H](NC(=O)[C@H](Cc1ccccc1)NC(=O)[C@H](CCC(=O)O)NC(=O)[C@H](CCCCN)NC(=O)[C@H](C)NC(=O)[C@H](C)NC(=O)[C@H](CCC(N)=O)NC(=O)CNC(=O)[C@H](CCC(=O)O)NC(=O)[C@H](CC(C)C)NC(=O)[C@H](Cc1ccc(O)cc1)NC(=O)[C@H](CO)NC(=O)[C@H](CO)NC(=O)[C@@H](NC(=O)[C@H](CC(=O)O)NC(=O)[C@H](CO)NC(=O)[C@@H](NC(=O)[C@H](Cc1ccccc1)NC(=O)[C@@H](NC(=O)CNC(=O)[C@H](CCC(=O)O)NC(=O)CNC(=O)[C@H](Cc1c[nH]cn1)NC(=O)[C@H](C)N)[C@@H](C)O)[C@@H](C)O)C(C)C)C(=O)N[C@@H](C)C(=O)N[C@@H](Cc1c[nH]c2ccccc12)C(=O)N[C@@H](CC(C)C)C(=O)N[C@H](C(=O)N[C@@H](CCCCN)C(=O)NCC(=O)O)C(C)C [3166749#1, AHGEGTFTSDVSSYLEGQAAKEFIAWLVKG]	0.0669	
CC[C@H](C)[C@H](NC(=O)[C@H](Cc1ccccc1)NC(=O)[C@H](CCC(=O)O)NC(=O)[C@H](CCCCN)NC(=O)[C@H](C)NC(=O)[C@H](C)NC(=O)[C@H](CCC(N)=O)NC(=O)CNC(=O)[C@H](CCC(=O)O)NC(=O)[C@H](CC(C)C)NC(=O)[C@H](Cc1ccc(O)cc1)NC(=O)[C@H](CO)NC(=O)[C@H](CO)NC(=O)[C@@H](NC(=O)[C@H](CC(=O)O)NC(=O)[C@H](CO)NC(=O)[C@@H](NC(=O)[C@H](Cc1ccccc1)NC(=O)[C@@H](NC(=O)CNC(=O)[C@H](CCC(=O)O)NC(=O)CNC(=O)[C@H](Cc1c[nH]cn1)NC(=O)CN)[C@@H](C)O)[C@@H](C)O)C(C)C)C(=O)N[C@@H](C)C(=O)N[C@@H](Cc1c[nH]c2ccccc12)C(=O)N[C@@H](CC(C)C)C(=O)N[C@H](C(=O)N[C@@H](CCCCN)C(=O)NCC(=O)O)C(C)C [3166961#1, GHGEGTFTSDVSSYLEGQAAKEFIAWLVKG]		0.205
CC[C@H](C)[C@H](NC(=O)[C@H](Cc1ccccc1)NC(=O)[C@H](CCC(=O)O)NC(=O)[C@H](CCCCN)NC(=O)[C@H](C)NC(=O)[C@H](C)NC(=O)[C@H](CCC(N)=O)NC(=O)CNC(=O)[C@H](CCC(=O)O)NC(=O)[C@H](CC(C)C)NC(=O)[C@H](Cc1ccc(O)cc1)NC(=O)[C@H](CO)NC(=O)[C@H](CO)NC(=O)[C@@H](NC(=O)[C@H](CC(=O)O)NC(=O)[C@H](CO)NC(=O)[C@@H](NC(=O)[C@H](Cc1ccccc1)NC(=O)[C@@H](NC(=O)CNC(=O)[C@H](CCC(=O)O)NC(=O)CNC(=O)[C@H](Cc1c[nH]cn1)NC(=O)[C@@H](N)Cc1c[nH]cn1)[C@@H](C)O)[C@@H](C)O)C(C)C)C(=O)N[C@@H](C)C(=O)N[C@@H](Cc1c[nH]c2ccccc12)C(=O)N[C@@H](CC(C)C)C(=O)N[C@H](C(=O)N[C@@H](CCCCN)C(=O)NCC(=O)O)C(C)C [3166962#1, HHGEGTFTSDVSSYLEGQAAKEFIAWLVKG]		0.363
